Read-outs that look alike come from different tables or passages of the source. Where a SMILES comes first, the peptide text is derived from it.
Assays:
HLA-A2 = target: T1, HLA-A2 (Homo sapiens, UniProt P04439, D140Y/D185E/D98H/E176V/E277Q/G131W/G231S/I119V/I121R/I166T/I218V/L300P/L318F/N151K/N90K/P208A/P217A/Q86G/Q94H/R138H/R169H/T345S); experiment: T2 binding assay (HLA-A2 expression on T2 cells by flow cytometry)
T1 construct: host or cells: T2 cells (human T-B lymphoblast hybrid, TAP1/TAP2 deficient)

[1] = system: C1R.AAD cells pulsed or unpulsed with peptide; experiment: CTL 51Cr-release assay, spleen cells of peptide-immunized HLA-A2 transgenic mice against peptide-pulsed or unpulsed targets; assay type: in vivo; conditions: spleen cells from immunized HLA-A2-transgenic mice
Excerpt: (§1) FIG. 3. CTLs induced with peptide of the invention can lyse human cancer cell expressing XAGE-1. Spleen cells derived from HLA-A2 transgenic mice immunized with a peptide of the invention (SEQ ID NO:6), as the effector cells, were stimulated in vitro for two weeks and used for a CTL assay. C1R.AAD cells pulsed or unpulsed with a peptide of SEQ ID NO:6 and a human osteosarcoma cell line expressing XAGE-1 (SB, described in Liu et al, Can Research 60:4752-4755 (2000)) were used as target cells. “E:T Ratio” stands for “Effector:Target ratio,” as indicated on the axis.
(§2) Xage-1 14 peptide (50 nmol) was emulsified in incomplete Freund's adjuvant with 50 nmol of a helper epitope derived from HCV core128-140, 5 μg of IL-12, and 5 μg of GM-CSF. Transgenic A2 Kb mice were immunized s.c. with the emulsified peptide and given a booster shot at 2 weeks. […] A week after the second stimulation, cells were harvested and measured for cytotoxic activity. The cytotoxic activity was measured by 4-hr ^51Cr-release assay. The percentage of specific ^51Cr release was determined as follows: (experimental release−spontaneous release)/(maximum release−spontaneous release)×100. Maximum release was determined from supernatants of cells that were lysed by addition of 5% Triton X-100. Spontaneous release was determined from target cells incubated without added effector cells. […]

[2] = system: HLA-A2 positive human Ewing's sarcoma cell line which expresses XAGE-1 mRNA; experiment: CTL lysis of human XAGE-1-expressing cancer cells by CTLs of immunized HLA-A2 transgenic mice; assay type: in vivo
Excerpt: as §1, §2

[3] = T2 cells, overnight incubation with peptide and β2-microglobulin, read-out: binding affinity to HLA-A2 (F.I.50)
[4] = T2 binding assay, enhanced xage-1 14 peptides, read-out: Binding Affinity to HLA-A2 (FI50)

| SMILES | EC50 (HLA-A2; [3]) [µM] | EC50 (HLA-A2; [4]) [µM] | binding to HLA-A2 (in words) (HLA-A2; T2 binding assay) | other results |
| --- | --- | --- | --- | --- |
| CC(C)C[C@H](NC(=O)[C@@H](N)Cc1ccc(O)cc1)C(=O)N[C@@H](Cc1ccccc1)C(=O)N1CCC[C@H]1C(=O)N[C@@H](CO)C(=O)N[C@@H](C)C(=O)N1CCC[C@H]1C(=O)N[C@@H](CO)C(=O)N1CCC[C@H]1C(=O)N[C@H](C(=O)O)C(C)C [1Y2L xage-1 14, YLFPSAPSPV] (H-YLFPSAPSPV-OH; N-terminus and C-terminus assumed) |  | 3.04 |  |  |
| CC(C)[C@H](NC(=O)[C@@H]1CCCN1C(=O)[C@H](CO)NC(=O)[C@@H]1CCCN1C(=O)[C@H](C)NC(=O)[C@H](CO)NC(=O)[C@@H]1CCCN1C(=O)[C@H](Cc1ccccc1)NC(=O)[C@@H](NC(=O)[C@@H](N)Cc1ccc(O)cc1)C(C)C)C(=O)O [1Y xage-1 14, YVFPSAPSPV] (H-YVFPSAPSPV-OH; N-terminus and C-terminus assumed) |  | 2.36 |  |  |
| CC(C)[C@H](NC(=O)[C@@H]1CCCN1C(=O)[C@H](CO)NC(=O)[C@@H]1CCCN1C(=O)[C@H](C)NC(=O)[C@H](CO)NC(=O)[C@@H]1CCCN1C(=O)[C@H](Cc1ccccc1)NC(=O)[C@@H](NC(=O)CN)C(C)C)C(=O)O [xage-1 14, GVFPSAPSPV] (H-GVFPSAPSPV-OH; N-terminus and C-terminus assumed) | 0.7 to 0.8 |  | surprisingly stronger binding to HLA-A2 compared to other candidate peptides | specific lytic activity against peptide-pulsed targets ([1]; stimulated twice in vitro, targets pulsed with xage-1 14): lysed target cells pulsed with peptide; lytic activity against target cells not pulsed with peptide ([1]; unpulsed targets): did not lyse target cells not pulsed with peptide; killing of human XAGE-1-expressing cancer cells by CTLs (FIG. 3) ([2]; CTLs from HLA-A2 transgenic mice immunized with peptide, varying E:T ratio): killed human RAGE-1-expressing cancer cells in a dose dependent manner; lysis of human Ewing's sarcoma cells by CTLs ([2]; CTLs from mice immunized twice with peptide, restimulated in vitro): lysed the human Ewing's sarcoma cells |
| CC(C)C[C@H](NC(=O)CN)C(=O)N[C@@H](Cc1ccccc1)C(=O)N1CCC[C@H]1C(=O)N[C@@H](CO)C(=O)N[C@@H](C)C(=O)N1CCC[C@H]1C(=O)N[C@@H](CO)C(=O)N1CCC[C@H]1C(=O)N[C@H](C(=O)O)C(C)C [2L xage-1 14, GLFPSAPSPV] (H-GLFPSAPSPV-OH; N-terminus and C-terminus assumed) |  | 1.86 |  |  |
| CSCC[C@H](NC(=O)[C@H](CC(C)C)NC(=O)CN)C(=O)N1CCC[C@H]1C(=O)N[C@@H](CO)C(=O)N[C@@H](C)C(=O)N1CCC[C@H]1C(=O)N[C@@H](CO)C(=O)N1CCC[C@H]1C(=O)N[C@H](C(=O)O)C(C)C [2L3M xage-1 14, GLMPSAPSPV] (H-GLMPSAPSPV-OH; N-terminus and C-terminus assumed) |  | 0.62 | particularly high binding affinity to HLA-A2 |  |

Continued, in another order:

| EC50 (HLA-A2; [3]) [µM] | EC50 (HLA-A2; [4]) [µM] | SMILES | binding to HLA-A2 (in words) (HLA-A2; T2 binding assay) | other results |
| --- | --- | --- | --- | --- |
| > 50 |  | CSCC[C@H](NC(=O)[C@@H](NC(=O)[C@@H]1CCCN1C(=O)[C@H](CO)NC(=O)[C@H](CCCNC(=N)N)NC(=O)[C@@H]1CCCN1C(=O)[C@H](CO)NC(=O)[C@H](C)NC(=O)[C@@H](NC(=O)[C@@H](N)Cc1c[nH]cn1)[C@@H](C)O)C(C)C)C(=O)O [xage-1 57, HTASPRSPVM, reference compound] (H-HTASPRSPVM-OH) |  |  |
|  | 0.28 | CSCC[C@H](NC(=O)[C@@H](NC(=O)CN)C(C)C)C(=O)N1CCC[C@H]1C(=O)N[C@@H](CO)C(=O)N[C@@H](C)C(=O)N1CCC[C@H]1C(=O)N[C@@H](CO)C(=O)N1CCC[C@H]1C(=O)N[C@H](C(=O)O)C(C)C [3M xage-1 14, GVMPSAPSPV] (H-GVMPSAPSPV-OH; N-terminus and C-terminus assumed) | particularly high binding affinity to HLA-A2 |  |
| > 50 |  | CC[C@H](C)[C@H](NC(=O)[C@H](Cc1c[nH]c2ccccc12)NC(=O)[C@@H](NC(=O)[C@H](CCC(=O)O)NC(=O)[C@@H]1CCCN1C(=O)[C@@H](NC(=O)[C@H](CCCNC(=N)N)NC(=O)[C@@H](NC(=O)[C@H](C)N)[C@@H](C)O)C(C)C)C(C)C)C(=O)N[C@@H](CC(C)C)C(=O)O [xage-1 33, ATRVPEVWIL, reference compound] (H-ATRVPEVWIL-OH) |  |  |
